Assay results taken from PMC9917560, “Design, Synthesis and Antimicrobial Evaluation of New N-(1-Hydroxy-1,3-dihydrobenzo[c][1,2]oxaborol-6-yl)(hetero)aryl-2-carboxamides as Potential Inhibitors of Mycobacterial Leucyl-tRNA Synthetase” (International Journal of Molecular Sciences, 2023).
Converted amounts (≈) assume the structure as drawn. Where two headings read alike, the source gives them in different places.

Columns and labels:
Mtb laboratory ID IZAK = assay type: cell-based, Mycobacterium tuberculosis; details: strain IZAK
Mtb laboratory ID MATI = assay type: cell-based, Mycobacterium tuberculosis; details: strain MATI
[1] = system: Mycobacterium tuberculosis H37Ra ITM-M006710 (ATCC 9431); test: Antimycobacterial microdilution (resazurin) vs Mtb H37Ra; assay type: cell-based; details: Middlebrook 7H9, resazurin, recalculated from µg/mL, read-out: MIC Mtb H37Ra
[2] = system: Mycobacterium tuberculosis H37Rv CNCTC My 331/88 (ATCC 27294); test: Microplate Alamar Blue assay vs Mtb H37Rv; assay type: cell-based; details: Middlebrook 7H9 pH 6.6, recalculated from µg/mL, read-out: MIC Mtb H37Rv
[3] = system: Mycobacterium kansasii DSM 44,162 (ATCC 12478); test: Antimycobacterial microdilution (resazurin) vs M. kansasii; assay type: cell-based; details: read-out: MIC M. kansasii
[4] = system: Mycobacterium avium DSM 44,156 (ATCC 25291); test: Antimycobacterial microdilution (resazurin) vs M. avium; assay type: cell-based; details: Mycobacterium avium, Middlebrook 7H9, resazurin; read-out: MIC M. avium
[5] = system: Mycolicibacterium aurum DSM 43,999 (ATCC 23366); test: Antimycobacterial microdilution (resazurin) vs M. aurum; assay type: cell-based; details: Middlebrook 7H9, resazurin, read-out: MIC M. aurum
[6] = system: Mycolicibacterium smegmatis DSM 43,465 (ATCC 607); test: Antimycobacterial microdilution (resazurin) vs M. smegmatis; assay type: cell-based; details: Middlebrook 7H9, resazurin, read-out: MIC M. smeg.
[7] = system: Staphylococcus aureus subsp. aureus CCM 4223 (ATCC 29213); test: Antibacterial microdilution broth (EUCAST); assay type: cell-based; details: read-out: MIC Staphylococcus aureus subsp. aureus
[8] = system: methicillin-resistant Staphylococcus aureus subsp. aureus (MRSA) CCM 4750 (ATCC 43300); test: microbe, parasite or virus in culture; assay type: cell-based; details: read-out: MIC Methicillin-resistant Staphylococcus aureus subsp. aureus
[9] = system: Staphylococcus epidermidis CCM 4418 (ATCC 12228); test: Antibacterial microdilution broth (EUCAST); assay type: cell-based; details: read-out: MIC Staphylococcus epidermidis
[10] = system: Enterococcus faecalis CCM 4224 (ATCC 29212); test: Antibacterial microdilution broth (EUCAST); assay type: cell-based; details: read-out: MIC Enterococcus faecalis
[11] = system: Escherichia coli CCM 3954 (ATCC 25922); test: Antibacterial microdilution broth (EUCAST); assay type: cell-based; details: Escherichia coli, read-out: MIC Escherichia coli
[12] = system: Klebsiella pneumoniae CCM 4415 (ATCC 10031); test: Antibacterial microdilution broth (EUCAST); assay type: cell-based; details: Klebsiella pneumoniae, read-out: MIC Klebsiella pneumoniae
[13] = system: Acinetobacter baumannii DSM 30007 (ATCC 19606); test: Antibacterial microdilution broth (EUCAST); assay type: cell-based; details: read-out: MIC Acinetobacter baumannii
[14] = system: Pseudomonas aeruginosa CCM 3955 (ATCC 27853); test: Antibacterial microdilution broth (EUCAST); assay type: cell-based; details: read-out: MIC Pseudomonas aeruginosa
[15] = system: Candida albicans CCM 8320 (ATCC 24433); test: Antifungal microdilution broth (EUCAST); assay type: cell-based; details: Candida albicans, read-out: MIC Candida albicans
[16] = system: Candida krusei CCM 8271 (ATCC 6258); test: Antifungal microdilution broth (EUCAST); assay type: cell-based; details: Pichia kudriavzevii, read-out: MIC Candida krusei
[17] = system: Candida parapsilosis CCM 8260 (ATCC 22019); test: Antifungal microdilution broth (EUCAST); assay type: cell-based; details: Lodderomyces parapsilosis, read-out: MIC Candida parapsilosis
[18] = system: Candida tropicalis CCM 8264 (ATCC 750); test: Antifungal microdilution broth (EUCAST); assay type: cell-based; details: read-out: MIC Candida tropicalis
[19] = system: Aspergillus fumigatus ATCC 204305; test: Antifungal microdilution broth (EUCAST); assay type: cell-based; details: Aspergillus fumigatus, ATCC204305, read-out: MIC Aspergillus fumigatus
[20] = system: Aspergillus flavus CCM 8363; test: Antifungal microdilution broth (EUCAST); assay type: cell-based; details: Aspergillus flavus, CCM8363, read-out: MIC Aspergillus flavus
[21] = system: Lichtheimia corymbifera CCM 8077; test: Antifungal microdilution broth (EUCAST); assay type: cell-based; details: Lichtheimia corymbifera, CCM8077, read-out: MIC Lichtheimia corymbifera
[22] = system: Trichophyton interdigitale CCM 8377 (ATCC 9533); test: Antifungal microdilution broth (EUCAST); assay type: cell-based; details: Trichophyton interdigitale, read-out: MIC Trichophyton interdigitale
HepG2 cell line = test: Cytotoxicity screening, CellTiter 96 assay; details: for IC50: Homo sapiens, HepG2, 24 h, read-out: IC50 HepG2
[23] = Mycobacterium tuberculosis, pH 6.6, MABA

## NC(=O)c1cnccn1 [PZA, pyrazinamide]
Mtb laboratory ID IZAK; CLSI 2020
  Concentration: >129.96 µM
Mtb laboratory ID IZAK; CLSI breakpoints 2020
  Susceptibility: resistant
Mtb laboratory ID MATI; CLSI 2021
  Concentration: >1039.70 µM
Mtb laboratory ID MATI; CLSI breakpoints 2021
  Susceptibility: resistant

## Nc1nccnc1C(=O)Nc1ccc2c(c1)B(O)OC2 [Compound 6, 3-amino-N-(1-hydroxy-1,3-dihydrobenzo[c][1,2]oxaborol-6-yl)pyrazine-2-carboxamide]
[1]
  MIC: > 1850 µM
[2]; [23]
  MIC: > 370 µM
[3]
  MIC: > 1850 µM
[4]
  MIC: > 1850 µM
[5]
  MIC: 14.5 µM (≈ 3.91 µg/mL)
[6]
  MIC: 463 µM (≈ 125 µg/mL)
[7]; 24h incubation
  MIC: > 500 µM
[7]; 48h incubation
  MIC: > 500 µM
[8]; 24 h
  MIC: > 500 µM
[8]; 48 h
  MIC: > 500 µM
[9]; 24h incubation
  MIC: > 500 µM
[9]; 48h incubation
  MIC: > 500 µM
[10]; 24h incubation
  MIC: > 500 µM
[10]; 48h incubation
  MIC: > 500 µM
[11]; 24h incubation
  MIC: > 500 µM
[11]; 48h incubation
  MIC: > 500 µM
[12]; 24h incubation
  MIC: > 500 µM
[12]; 48h incubation
  MIC: > 500 µM
[13]; 24h incubation
  MIC: > 500 µM
[13]; 48h incubation
  MIC: > 500 µM
[14]; 24h incubation
  MIC: > 500 µM
[14]; 48h incubation
  MIC: > 500 µM
[15]; 24h incubation
  MIC: > 500 µM
[15]; 48h incubation
  MIC: > 500 µM
[16]; 24h incubation
  MIC: > 500 µM
[16]; 48h incubation
  MIC: > 500 µM
[17]; 24h incubation
  MIC: > 500 µM
[17]; 48h incubation
  MIC: > 500 µM
[18]; 24h incubation
  MIC: > 500 µM
[18]; 48h incubation
  MIC: > 500 µM
[19]; 24h incubation
  MIC: > 500 µM
[19]; 48h incubation
  MIC: > 500 µM
[20]; 24h incubation
  MIC: > 500 µM
[20]; 48h incubation
  MIC: > 500 µM
[21]; 24h incubation
  MIC: > 500 µM
[21]; 48h incubation
  MIC: > 500 µM
[22]; 72h incubation
  MIC: > 500 µM
[22]; 120h incubation
  MIC: > 500 µM
other
  melting point: 246.6 to 249.4 °C
HepG2 cell line
  IC50: > 100 µM
HepG2 cell line; tested up to 500 µM (2, 3), 250 µM (12, 17), 100 µM (6, 7, 11) because of solubility
  toxicity to HepG2 up to highest tested concentration: non-toxic

## O=C(Nc1ccc2c(c1)B(O)OC2)c1ccc(O)nc1 [Compound 13, 6-hydroxy-N-(1-hydroxy-1,3-dihydrobenzo[c][1,2]oxaborol-6-yl)nicotinamide]
[1]
  MIC: 463 µM (≈ 125 µg/mL)
[2]; MABA
  MIC: >370.30 µM
[2]; [23]
  MIC: > 370 µM
[3]; Middlebrook 7H9, resazurin
  MIC: 116 µM (≈ 31.3 µg/mL)
[4]
  MIC: 463 µM (≈ 125 µg/mL)
[5]
  MIC: 116 µM (≈ 31.3 µg/mL)
[6]
  MIC: 116 µM (≈ 31.3 µg/mL)
[7]; 24h incubation
  MIC: > 500 µM
[7]; 48h incubation
  MIC: > 500 µM
[8]; 24 h
  MIC: > 500 µM
[8]; 48 h
  MIC: > 500 µM
[9]; 24h incubation
  MIC: > 500 µM
[9]; 48h incubation
  MIC: > 500 µM
[10]; 24h incubation
  MIC: > 500 µM
[10]; 48h incubation
  MIC: > 500 µM
[11]; 24h incubation
  MIC: > 500 µM
[11]; 48h incubation
  MIC: > 500 µM
[12]; 24h incubation
  MIC: > 500 µM
[12]; 48h incubation
  MIC: > 500 µM
[13]; 24h incubation
  MIC: > 500 µM
[13]; 48h incubation
  MIC: > 500 µM
[14]; 24h incubation
  MIC: > 500 µM
[14]; 48h incubation
  MIC: > 500 µM
[15]; 24h incubation
  MIC: > 500 µM
[15]; 48h incubation
  MIC: > 500 µM
[16]; 24h incubation
  MIC: > 500 µM
[16]; 48h incubation
  MIC: > 500 µM
[17]; 24h incubation
  MIC: > 500 µM
[17]; 48h incubation
  MIC: > 500 µM
[18]; 24h incubation
  MIC: > 500 µM
[18]; 48h incubation
  MIC: > 500 µM
[19]; 24h incubation
  MIC: > 500 µM
[19]; 48h incubation
  MIC: > 500 µM
[20]; 24h incubation
  MIC: > 500 µM
[20]; 48h incubation
  MIC: > 500 µM
[21]; 24h incubation
  MIC: > 500 µM
[21]; 48h incubation
  MIC: > 500 µM
[22]; 72h incubation
  MIC: > 500 µM
[22]; 120h incubation
  MIC: > 500 µM
other
  melting point: 304.8 to 306.9 °C
HepG2 cell line
  IC50: > 1000 µM

## O=C(Nc1ccc2c(c1)B(O)OC2)c1cnc(O)cn1 [Compound 9, 5-hydroxy-N-(1-hydroxy-1,3-dihydrobenzo[c][1,2]oxaborol-6-yl)pyrazine-2-carboxamide]
[1]
  MIC: 115 µM (≈ 31.3 µg/mL)
[2]; [23]
  MIC: 184 µM (≈ 50 µg/mL)
[3]
  MIC: 115 µM (≈ 31.3 µg/mL)
[4]
  MIC: 231 µM (≈ 62.5 µg/mL)
[5]
  MIC: 231 µM (≈ 62.5 µg/mL)
[6]
  MIC: 57.6 µM (≈ 15.6 µg/mL)
[7]; 24h incubation
  MIC: > 500 µM
[7]; 48h incubation
  MIC: > 500 µM
[8]; 24 h
  MIC: > 500 µM
[8]; 48 h
  MIC: > 500 µM
[9]; 24h incubation
  MIC: > 500 µM
[9]; 48h incubation
  MIC: > 500 µM
[10]; 24h incubation
  MIC: > 500 µM
[10]; 48h incubation
  MIC: > 500 µM
[11]; 24h incubation
  MIC: > 500 µM
[11]; 48h incubation
  MIC: > 500 µM
[12]; 24h incubation
  MIC: > 500 µM
[12]; 48h incubation
  MIC: > 500 µM
[13]; 24h incubation
  MIC: > 500 µM
[13]; 48h incubation
  MIC: > 500 µM
[14]; 24h incubation
  MIC: > 500 µM
[14]; 48h incubation
  MIC: > 500 µM
[15]; 24h incubation
  MIC: > 500 µM
[15]; 48h incubation
  MIC: > 500 µM
[16]; 24h incubation
  MIC: > 500 µM
[16]; 48h incubation
  MIC: > 500 µM
[17]; 24h incubation
  MIC: > 500 µM
[17]; 48h incubation
  MIC: > 500 µM
[18]; 24h incubation
  MIC: > 500 µM
[18]; 48h incubation
  MIC: > 500 µM
[19]; 24h incubation
  MIC: > 500 µM
[19]; 48h incubation
  MIC: > 500 µM
[20]; 24h incubation
  MIC: > 500 µM
[20]; 48h incubation
  MIC: > 500 µM
[21]; 24h incubation
  MIC: > 500 µM
[21]; 48h incubation
  MIC: > 500 µM
[22]; 72h incubation
  MIC: > 500 µM
[22]; 120h incubation
  MIC: > 500 µM
other
  melting point: 338.3 to 340.1 °C
HepG2 cell line
  IC50: > 1000 µM
